Results as given in EP0414931B1, “Hypotensive agent” (TANABE SEIYAKU CO., LTD., priority 1989, dated 1991).
Marks after values point to notes of the source that are not given here.

How the values were obtained:
SHR [1] = experiment: Antihypertensive activity in SHR, repeated administration (tail-cuff method); assay type: in vivo, rats; conditions: for Systolic blood pressure: SHR 5 weeks old
Experimental: (§1) A suspension of the test compound (1) in water containing a small amount of Tween 80 was administered orally in a volume of 10 ml/kg (a dose of the test compound: 100 mg/kg/day) once a day for 4 weeks to SHR (5 weeks old, weight; about 100 g, 10 rats/group) in the test compound-administered group. On the other hand, the same amount of water containing a small amount of Tween 80 was administered to the rats in control group instead of the suspension of the test compound (1). The systolic blood pressure of rats of the both groups was measured once a week until the fifth week by the tail-cuff method.

DOCA-salt rats = experiment: Antihypertensive activity on progressive hypertension in DOCA-salt rats (tail-cuff method); assay type: in vivo, male SD rats; conditions: for Systolic blood pressure: 50 mg/kg/day orally once a day for 4 weeks
Experimental: (§2) A left kidney was taken out from male SD rats (6 weeks old, weight; about 200 g, 10 rats/group), and 1 week later, silicon resin containing 150 mg/kg of deoxycorticosterone acetic acid (DOCA) was embedded in subcutaneous tissue at the back of each rat under ether anesthesia. After operation, the rats were provided with water containing 1 % sodium chloride and 0.2 % potassium chloride as drinking water in order to produce DOCA-salt rats. From the next day after operation of embedding the silicon resin containing DOCA, a suspension of the test compound (I) in water containing a small amount of Tween 80 was administered orally in a volume of 10 ml/kg (a dose of the test compound: 50 mg/kg/day) once a day for 4 weeks in the test compound-administered group. On the other hand, the same amount of water containing a small amount of the Tween 80 was administered in the control group instead of the suspension of the test compound (1). The systolic blood pressure of rats in the both groups was measured once a week until the fourth week by the tail-cuff method.

SHR [2] = experiment: Hypotensive activity in SHR by single administration of test compound (tail-cuff method); assay type: in vivo, rats; conditions: SHR about 40 weeks old, fasted overnight; for rate of change of the blood pressure: 200 mg/kg orally, single dose, 2 hours after administration against before administration; for decrease of the systolic blood pressure: 200 mg/kg orally once, 2 hours after administration in comparison with before administration
Experimental: The phenoxyacetic acid derivatives (I) and pharmaceutically acceptable salts thereof, which are the active ingredient for use in the preparation of the hypotensive agent have an excellent hypotensive activity.
A suspension of a test compound in water containing a small amount of Tween 80 was administered orally in a volume of 1 ml/100 g of rat's weight (a dose of the test compound: 200 mg/kg) to SHR (about 40 weeks old, 4 to 6 rats/group) fasted overnight. The blood pressure before and after administration of the test compound were measured noninvasively by the tail-cuff method, and estimated the rate of the change of the blood pressure 2 hours after administration of the test compound against the blood pressure before administration of the test compound. In both of test compound No. (1) and No. (2), the rate of change of the blood pressure was about -13 %.

established-SHR = experiment: Antihypertensive activity in SHR in the established hypertension condition (tail-cuff method); assay type: in vivo, rats; conditions: for Systolic blood pressure: 100 mg/kg/day orally once a day for 3 weeks, established-SHR 18 weeks old
Experimental: as §1
Using the SHR being in the established hypertension (established-SHR, 18 weeks old, weight; 300 to 375 g, 8 rats/group), the same procedures were carried out as Experiment 3 except that the period of administration of the test compound (1) was 3 weeks, and the systolic blood pressure was measured until the third week after administration.

[3] = system: established DOCA-salt hypertensive rats; experiment: Antihypertensive activity in DOCA-salt rats in the established hypertension condition (tail-cuff method); assay type: in vivo
Experimental: as §2, §1
The DOCA-salt loaded rats being in the stable hypertensive condition were obtained by feeding the DOCA-salt loaded rats used in Experiment 2 with tap water instead of aqueous salt solution for 6 weeks. Using these established DOCA-salt hypertensive rats (8 rats/group), the same experiments were carried out as Experiment 3 except that the dose of the test compound (1) was 50 mg/kg/day, the period of administration was 3 weeks, and the systolic blood pressure was measured until the fourth week after administration.

`CCn1nccc1C(=O)c1ccc(OCC(=O)O)c(Cl)c1Cl` [(1), [2,3-dichloro-4-(1-ethyl-5-pyrazolylcarbonyl)phenoxy]acetic acid] was tested, and the “increase of blood pressure as compared with control group” value (SHR [1]; 100 mg/kg/day orally for 4 weeks, result in words) was “inhibited significantly from the first week after administration”, the Systolic blood pressure (SHR [1]; day 0, 100 mg/kg/day orally once a day for 4 weeks) was 131.2 mmHg and the Systolic blood pressure (SHR [1]; day 7, 100 mg/kg/day orally once a day for 4 weeks) was 141.0** mmHg. For the same compound, the Systolic blood pressure (SHR [1]; day 14, 100 mg/kg/day orally once a day for 4 weeks) was 161.9** mmHg, the Systolic blood pressure (SHR [1]; day 21, 100 mg/kg/day orally once a day for 4 weeks) was 175.4** mmHg and the Systolic blood pressure (SHR [1]; day 28, 100 mg/kg/day orally once a day for 4 weeks) was 185.2** mmHg. For the same compound, the Systolic blood pressure (SHR [1]; day 35 (one week after the 4-week dosing), 100 mg/kg/day orally) was 198.4** mmHg, the “increase of blood pressure as compared with control group” value (DOCA-salt rats; 50 mg/kg/day orally for 4 weeks, result in words) was “inhibited significantly from the second week after administration” and the Systolic blood pressure (DOCA-salt rats; day 0) was 121.6 mmHg. The Systolic blood pressure (DOCA-salt rats; day 7) was 140.3 mmHg, the Systolic blood pressure (DOCA-salt rats; day 14) was 165.0* mmHg and the Systolic blood pressure (DOCA-salt rats; day 21) was 182.0* mmHg. The Systolic blood pressure (DOCA-salt rats; day 28) was 193.3* mmHg, the “rate of change of the blood pressure” value (SHR [2]) was “about -13%” and the “blood pressure in comparison with control group” value (established-SHR; 100 mg/kg/day orally for 3 weeks, result in words) was “decreased significantly from the first week after administration”. For the same compound, the Systolic blood pressure (established-SHR; day 0) was 207.3 mmHg, the Systolic blood pressure (established-SHR; day 7) was 189.6* mmHg and the Systolic blood pressure (established-SHR; day 14) was 201.8* mmHg. For the same compound, the Systolic blood pressure (established-SHR; day 21) was 198.6* mmHg, the “blood pressure in comparison with control group” value ([3]; 50 mg/kg/day orally for 3 weeks, result in words) was “decreased significantly from the second week after administration” and the Systolic blood pressure ([3]; day 0, 50 mg/kg/day orally once a day for 3 weeks) was 171.1 mmHg. The Systolic blood pressure ([3]; day 7, 50 mg/kg/day orally once a day for 3 weeks) was 167.4 mmHg, the Systolic blood pressure ([3]; day 14, 50 mg/kg/day orally once a day for 3 weeks) was 168.1* mmHg and the Systolic blood pressure ([3]; day 28 (one week after the 3-week dosing), 50 mg/kg/day orally) was 170.7* mmHg.

In the case of `CCOCn1nccc1C(=O)c1ccc(OCC(=O)O)c(Cl)c1Cl` [(2), [2,3-dichloro-4-(1-ethoxymethyl-5-pyrazolylcarbonyl)phenoxy]acetic acid], the “rate of change of the blood pressure” value (SHR [2]) is reported as “about -13%”.

For `CCn1nccc1C(=O)c1ccc(OCC(=O)O)c(Cl)c1Cl` [[2,3-dichloro-4(1-ethyl-5-pyrazolylcarbonyl)phenoxy]acetic acid], the “decrease of the systolic blood pressure” value (SHR [2]) was “about 13%”.

For `CCOCn1nccc1C(=O)c1ccc(OCC(=O)O)c(Cl)c1Cl` [[2,3-dichloro-4-(1-ethoxymethyl-5-pyrazolylcarbonyl)phenoxy]acetic acid], the “decrease of the systolic blood pressure” value (SHR [2]) was “about 13%”.
